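The compound was tested at five concentrations on cells cultured in 96-well plates, with a 48-hour exposure period. Here, GI50 denotes the concentration required for 50% inhibition of growth.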 Activity calls are given as the source filed them. Cut-off read from the data, not from the text of the source: active = GI50 up to about 1.1 µM and inactive = higher.
What was measured:
Assay in all cases: NCI-60 cell line screen, 48 h
OVCAR-3 = test system: OVCAR-3
SK-MEL-28 = test system: SK-MEL-28
UACC-257 = test system: UACC-257
HCT-116 = test system: HCT-116
CCRF-CEM = test system: CCRF-CEM
SNB-75 = test system: SNB-75
HCC 2998 = test system: HCC 2998
A549 = test system: A549
SF-268 = test system: SF-268
SW-620 = test system: SW-620
MOLT-4 = test system: MOLT-4
HOP-62 = test system: HOP-62
SK-MEL-2 = test system: SK-MEL-2
NCI-H460 = test system: NCI-H460
T47D = test system: T47D
DU-145 = test system: DU-145
SK-MEL-5 = test system: SK-MEL-5
ACHN = test system: ACHN
A498 = test system: A498
TK-10 = test system: TK-10
MDA-MB-435 = test system: MDA-MB-435
MCF7 = test system: MCF7
UO-31 = test system: UO-31
HCT-15 = test system: HCT-15
SF-295 = test system: SF-295
BT-549 = test system: BT-549
OVCAR-4 = test system: OVCAR-4
Hs-578T = test system: Hs-578T
HOP-92 = test system: HOP-92
NCI-H226 = test system: NCI-H226
786-0 = test system: 786-0
COLO 205 = test system: COLO 205
IGROV-1 = test system: IGROV-1
MDA-N = test system: MDA-N
SN12C = test system: SN12C
SK-OV-3 = test system: SK-OV-3
KM12 = test system: KM12
NCI-H522 = test system: NCI-H522
Malme-3M = test system: Malme-3M
NCI-H23 = test system: NCI-H23
PC-3 = test system: PC-3
OVCAR-8 = test system: OVCAR-8
M14 = test system: M14
K562 = test system: K562
OVCAR-5 = test system: OVCAR-5
EKVX = test system: EKVX
CAKI-1 = test system: CAKI-1
SNB-19 = test system: SNB-19
SF-539 = test system: SF-539
RXF 393 = test system: RXF 393
LOX IMVI = test system: LOX IMVI
U-251 = test system: U-251
NCI/ADR-RES = test system: NCI/ADR-RES
RPMI-8226 = test system: RPMI-8226
HT-29 = test system: HT-29

c1ccc(CNC2CC(NCc3ccccn3)CC(NCc3ccccn3)C2)nc1 (stereo unspecified)
GI50 (OVCAR-3): 3.33 µM (inactive)
GI50 (SK-MEL-28): 4.75 µM (inactive)
GI50 (UACC-257): 6.65 µM (inactive)
GI50 (HCT-116): 2.23 µM (inactive)
GI50 (CCRF-CEM): 2.92 µM (inactive)
GI50 (SNB-75): 2.97 µM (inactive)
GI50 (HCC 2998): 1.98 µM (inactive)
GI50 (A549): 2.61 µM (inactive)
GI50 (SF-268): 4.53 µM (inactive)
GI50 (SW-620): 4.11 µM (inactive)
GI50 (MOLT-4): 3.96 µM (inactive)
GI50 (HOP-62): 5.47 µM (inactive)
GI50 (SK-MEL-2): 2.58 µM (inactive)
GI50 (NCI-H460): 2.6 µM (inactive)
GI50 (T47D): 4.61 µM (inactive)
GI50 (DU-145): 3.14 µM (inactive)
GI50 (SK-MEL-5): 2.25 µM (inactive)
GI50 (ACHN): 12.5 µM (inactive)
GI50 (A498): 1.82 µM (inactive)
GI50 (TK-10): 4.58 µM (inactive)
GI50 (MDA-MB-435): 3.28 µM (inactive)
GI50 (MCF7): 2.29 µM (inactive)
GI50 (UO-31): 16.7 µM (inactive)
GI50 (HCT-15): 4.21 µM
GI50 (SF-295): 4.18 µM (inactive)
GI50 (BT-549): 6.79 µM (inactive)
GI50 (OVCAR-4): 2.88 µM (inactive)
GI50 (Hs-578T): 8.28 µM (inactive)
GI50 (HOP-92): 3.24 µM (inactive)
GI50 (NCI-H226): 2.32 µM (inactive)
GI50 (786-0): 3.02 µM (inactive)
GI50 (COLO 205): 1.81 µM (inactive)
GI50 (IGROV-1): 3.21 µM (inactive)
GI50 (MDA-N): 3.42 µM (inactive)
GI50 (SN12C): 5.97 µM (inactive)
GI50 (SK-OV-3): 2.82 µM (inactive)
GI50 (KM12): 1.73 µM (inactive)
GI50 (NCI-H522): 2.62 µM (inactive)
GI50 (Malme-3M): 3.56 µM (inactive)

CC(Nc1cc(Cl)cc(Cl)c1)c1ccncc1 (stereo unspecified)
GI50 (NCI-H23): 23.9 µM (inactive)
GI50 (OVCAR-3): 16.6 µM (inactive)
GI50 (SK-MEL-28): 30.6 µM (inactive)
GI50 (PC-3): 12.1 µM (inactive)
GI50 (UACC-257): 22.8 µM (inactive)
GI50 (HCT-116): 14.8 µM (inactive)
GI50 (CCRF-CEM): 15.3 µM (inactive)
GI50 (SNB-75): 23.3 µM (inactive)
GI50 (HCC 2998): 16.8 µM (inactive)
GI50 (A549): 27.8 µM (inactive)
GI50 (SF-268): 17.9 µM (inactive)
GI50 (SW-620): 17.4 µM (inactive)
GI50 (MOLT-4): 13.9 µM (inactive)
GI50 (HOP-62): 15.8 µM (inactive)
GI50 (SK-MEL-2): > 10 µM (inactive)
GI50 (NCI-H460): 16.9 µM (inactive)
GI50 (OVCAR-8): 18.5 µM (inactive)
GI50 (T47D): 7.85 µM (inactive)
GI50 (M14): 17.6 µM (inactive)
GI50 (K562): 13.6 µM (inactive)
GI50 (DU-145): > 10 µM (inactive)
GI50 (OVCAR-5): 16.2 µM (inactive)
GI50 (SK-MEL-5): 15.4 µM (inactive)
GI50 (ACHN): 22.4 µM (inactive)
GI50 (EKVX): 22.4 µM (inactive)
GI50 (A498): 23.3 µM (inactive)
GI50 (TK-10): 41.8 µM (inactive)
GI50 (CAKI-1): 17.2 µM (inactive)
GI50 (MDA-MB-435): 22.2 µM (inactive)
GI50 (SNB-19): 33.8 µM (inactive)
GI50 (MCF7): 16.2 µM (inactive)
GI50 (UO-31): 13.3 µM (inactive)
GI50 (SF-539): 21.8 µM (inactive)
GI50 (RXF 393): 20.7 µM (inactive)
GI50 (HCT-15): 29.1 µM
GI50 (SF-295): 18.5 µM (inactive)
GI50 (LOX IMVI): 10.9 µM (inactive)
GI50 (U-251): 17.9 µM (inactive)
GI50 (BT-549): 22.4 µM (inactive)
GI50 (NCI/ADR-RES): 20.5 µM (inactive)
GI50 (OVCAR-4): 38.9 µM (inactive)
GI50 (Hs-578T): 35.2 µM (inactive)
GI50 (NCI-H226): 11.5 µM (inactive)
GI50 (786-0): 26.2 µM (inactive)
GI50 (RPMI-8226): 18.2 µM (inactive)
GI50 (HT-29): 27.7 µM (inactive)
GI50 (COLO 205): 15.6 µM (inactive)
GI50 (IGROV-1): 15.4 µM (inactive)
GI50 (MDA-N): 21.3 µM (inactive)
GI50 (SN12C): > 10 µM (inactive)
GI50 (NCI-H522): 15.3 µM (inactive)
GI50 (Malme-3M): 27.7 µM (inactive)
